The supplement of paper PMC11061612

How the values were obtained:
[1] = test system: HSC-2 (Oral Cavity Carcinoma); assay: Bliss excess, mean over the matrix (fraction); higher = more synergy
Outline: (§1)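 After 24 hours at 37°C and 5% CO2 in 1536-well plates, cells in DMEM/F12 or RPMI plus 10% FBS received two-drug dose matrices for 72 hours. Viability came from CellTiter-Glo 2.0 luminescence and was scaled as inhibition, anchored at 0 by vehicle wells and at 1 by blank wells. Combination Emax is taken as the second-highest inhibition in the matrix, and Bliss excess as the observed combination effect less EA + EB − EA·EB, with EA and EB the single-agent effects.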

[2] = test system: SCC-9 (Oral Cavity Carcinoma); assay: as above
Outline: as §1

[3] = test system: LC4-1 (B-Lymphoblastic Leukemia); assay: as above
Outline: as §1

[4] = test system: KINGS-1 (Low Grade Glioma); assay: as above
Outline: as §1

[5] = test system: VMRC-LCD (Lung Adenocarcinoma); assay: as above
Outline: as §1

GI-1 (Glioblastoma) [6] = assay: as above
Outline: as §1

[7] = test system: NCI-N87 (Gastric Carcinoma); assay: as above
Outline: as §1

[8] = test system: H-EMC-SS (Chondrosarcoma); assay: as above
Outline: as §1

[9] = test system: OCUB-M (Breast Carcinoma); assay: as above
Outline: as §1

[10] = test system: OCUM-1 (Gastric Carcinoma); assay: as above
Outline: as §1

EW-3 (Ewing's Sarcoma) [11] = assay: as above
Outline: as §1

[12] = test system: JHH-7 (Hepatocellular Carcinoma); assay: as above
Outline: as §1

[13] = test system: SNU-C1 (Colorectal Carcinoma); assay: as above
Outline: as §1

[14] = test system: TGBC11TKB (Gastric Carcinoma); assay: as above
Outline: as §1

NB7 (Neuroblastoma) [15] = assay: as above
Outline: as §1

[16] = test system: HSC-2 (Oral Cavity Carcinoma); assay: combination Emax (second highest fraction inhibited in the dose matrix, 72 h); higher = more inhibition; extreme values may be limits of the assay
Outline: as §1

[17] = test system: SCC-9 (Oral Cavity Carcinoma); assay: as above
Outline: as §1

[18] = test system: LC4-1 (B-Lymphoblastic Leukemia); assay: as above
Outline: as §1

[19] = test system: KINGS-1 (Low Grade Glioma); assay: as above
Outline: as §1

[20] = test system: VMRC-LCD (Lung Adenocarcinoma); assay: as above
Outline: as §1

GI-1 (Glioblastoma) [21] = assay: as above
Outline: as §1

[22] = test system: NCI-N87 (Gastric Carcinoma); assay: as above
Outline: as §1

[23] = test system: H-EMC-SS (Chondrosarcoma); assay: as above
Outline: as §1

[24] = test system: OCUB-M (Breast Carcinoma); assay: as above
Outline: as §1

[25] = test system: OCUM-1 (Gastric Carcinoma); assay: as above
Outline: as §1

EW-3 (Ewing's Sarcoma) [26] = assay: as above
Outline: as §1

[27] = test system: JHH-7 (Hepatocellular Carcinoma); assay: as above
Outline: as §1

[28] = test system: SNU-C1 (Colorectal Carcinoma); assay: as above
Outline: as §1

[29] = test system: TGBC11TKB (Gastric Carcinoma); assay: as above
Outline: as §1

NB7 (Neuroblastoma) [30] = assay: as above
Outline: as §1
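Throughout, for Bliss excess, mean over the matrix: after 72 h of two-drug dosing.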

Compound | Bliss excess [1] | Bliss excess [2] | Bliss excess [3] | Bliss excess [4] | Bliss excess [5] | Bliss excess (GI-1 (Glioblastoma) [6]) | Bliss excess [7] | Bliss excess [8] | Bliss excess [9] | Bliss excess [10] | Bliss excess (EW-3 (Ewing's Sarcoma) [11]) | Bliss excess [12] | Bliss excess [13] | Bliss excess [14] | Bliss excess (NB7 (Neuroblastoma) [15]) | combination Emax [16] | combination Emax [17] | combination Emax [18] | combination Emax [19] | combination Emax [20] | combination Emax (GI-1 (Glioblastoma) [21]) | combination Emax [22] | combination Emax [23] | combination Emax [24] | combination Emax [25] | combination Emax (EW-3 (Ewing's Sarcoma) [26]) | combination Emax [27] | combination Emax [28] | combination Emax [29] | combination Emax (NB7 (Neuroblastoma) [30])
Cc1c2c(nn1C)CSCc1cc(n(C)n1)CSc1cc(c3ccccc3c1)OCCCc1c(C(=O)O)n(C)c3c-2c(Cl)ccc13 [AZD5991] + Nc1ccn([C@@H]2O[C@H](CO)[C@@H](O)C2(F)F)c(=O)n1 [Gemcitabine] (first compound max 1 µM, 7x7, partner max 0.3 µM) | 0.0273 | -0.0216 | 0.0158 | -0.0719 | 0.0333 | -0.0002 | -0.0095 | -0.005 | 0.0283 | -0.0565 | 0.0096 | -0.0114 | 0.0119 | -0.0006 | 0.0093 | 0.992 | 0.237 | 0.975 | 0.195 | 0.539 | 0.86 | 0.61 | 0.594 | 1 | 0.656 | 0.935 | 0.314 | 0.449 | 0.929 | 0.844
C[C@@H]1COCCN1c1cc(C2([S@](C)(=N)=O)CC2)nc(-c2ccnc3[nH]ccc23)n1 [AZD6738] + C1CC(C1)(C(=O)[O-])C(=O)[O-].N.N.[Pt+2] [Carboplatin] (first compound max 10 µM, 7x7, partner max 10 µM) | 0.0029 | -0.0334 | -0.0504 | -0.0713 | -0.0159 | 0.0044 | -0.0332 | -0.0251 | -0.0165 | -0.0496 | 0.0061 | -0.0368 | -0.0744 | -0.0618 | -0.0115 | 0.598 | 0.293 | 0.896 | 0.187 | 0.697 | 0.843 | 0.71 | 0.344 | 0.417 | 0.647 | 0.77 | 0.292 | 0.408 | 0.653 | 0.508
C[C@@H]1COCCN1c1cc(C2([S@](C)(=N)=O)CC2)nc(-c2ccnc3[nH]ccc23)n1 [AZD6738] + Nc1ccn([C@@H]2O[C@H](CO)[C@@H](O)C2(F)F)c(=O)n1 [Gemcitabine] (first compound max 10 µM, 7x7, partner max 0.3 µM) | 0.0604 | 0.024 | 0.0935 | -0.023 | 0.0526 | 0.0797 | 0.0265 | 0.006 | 0.028 | -0.0316 | -0.0176 | 0.085 | -0.0261 | -0.0137 | 0.0831 | 0.971 | 0.47 | 0.988 | 0.388 | 0.74 | 0.933 | 0.738 | 0.545 | 0.947 | 0.727 | 0.939 | 0.722 | 0.721 | 0.936 | 0.903
Cc1cc2ncnn2cc1Nc1ncc2c(n1)n(C1CCOCC1)c(=O)n2C [AZD7648] + COc1cc([C@@H]2c3cc4c(cc3[C@@H](O[C@@H]3O[C@@H]5CO[C@@H](C)O[C@H]5[C@H](O)[C@H]3O)[C@H]3COC(=O)[C@H]23)OCO4)cc(OC)c1O [Etoposide] (first compound max 10 µM, 7x7, partner max 10 µM) | 0.128 | 0.006 | 0.0856 | 0.061 | 0.171 | 0.0946 | -0.0062 | 0.0506 | 0.0176 | 0.0899 | 0.0762 | 0.0547 | -0.0254 | -0.0517 | 0.0544 | 0.866 | 0.481 | 1 | 0.516 | 0.555 | 0.907 | 0.697 | 0.524 | 0.885 | 0.557 | 0.855 | 0.642 | 0.275 | 0.0573 | 0.909
C[C@@H](Nc1cc(F)cc(F)c1)c1cc(C(=O)N(C)C)cc2c(=O)cc(N3CCOCC3)oc12 [AZD8186] + C1CN(CCC1(C(=O)N[C@@H](CCO)C2=CC=C(C=C2)Cl)N)C3=NC=NC4=C3C=CN4 [AZD5363] (first compound max 10 µM, 7x7, partner max 10 µM) | -0.0041 | -0.0225 | 0.027 | -0.0307 | -0.025 | 0.0399 | 0.0125 | -0.0314 | 0.019 | -0.0101 | 0.0017 | -0.0665 | -0.0605 | -0.0235 | -0.0059 | 0.667 | 0.351 | 0.398 | 0.422 | 0.0947 | 0.751 | 0.629 | 0.448 | 1 | 0.513 | 0.239 | 0.25 | 0.586 | 0.126 | 0.864
C[C@@H](Nc1cc(F)cc(F)c1)c1cc(C(=O)N(C)C)cc2c(=O)cc(N3CCOCC3)oc12 [AZD8186] + CC(=O)c1c(C)c2cnc(Nc3ccc(N4CCNCC4)cn3)nc2n(C2CCCC2)c1=O [Palbociclib] (first compound max 10 µM, 7x7, partner max 10 µM) | 0.0014 | 0.0322 | 0.202 | 0.0318 | 0.006 | 0.0438 | 0.0255 | -0.0127 | -0.0466 | 0.0111 | 0.0752 | -0.0086 | 0.0065 | 0.0002 | 0.211 | 0.533 | 0.382 | 0.641 | 0.398 | 0.165 | 0.454 | 0.656 | 0.474 | 0.252 | 0.36 | 0.392 | 0.216 | 0.37 | 0.178 | 0.932
C[C@@H](Oc1cc(-c2cnn(C3CCNCC3)c2)cnc1N)c1c(Cl)ccc(F)c1Cl [Crizotinib] + CC1=C(C(=CC=C1)Cl)NC(=O)C2=CN=C(S2)NC3=CC(=NC(=N3)C)N4CCN(CC4)CCO [Dasatinib] (first compound max 10 µM, 7x7, partner max 2 µM) | -0.0097 | 0.0429 | -0.0147 | 0.0575 | -0.0545 | 0.132 | -0.0251 | -0.004 | -0.0666 | -0.0693 | -0.0728 | -0.0142 | -0.056 | -0.0343 | 0.0924 | 0.923 | 0.966 | 0.866 | 0.788 | 0.657 | 0.969 | 0.607 | 0.402 | 0.391 | 0.354 | 0.571 | 0.422 | 0.683 | 0.176 | 0.689
C[C@@H](Oc1cc(-c2cnn(C3CCNCC3)c2)cnc1N)c1c(Cl)ccc(F)c1Cl [Crizotinib] + Cn1cnc2c(F)c(Nc3ccc(Br)cc3Cl)c(C(=O)NOCCO)cc21 [Selumetinib] (first compound max 10 µM, 7x7, partner max 10 µM) | -0.0618 | 0.0117 | -0.0198 | 0.0342 | -0.0474 | -0.0355 | -0.0764 | -0.0166 | 0.0034 | 0.0251 | -0.134 | -0.0152 | 0.0325 | 0.0524 | -0.0033 | 0.551 | 0.919 | 0.896 | 0.799 | 0.665 | 0.602 | 0.383 | 0.405 | 0.458 | 0.936 | 0.525 | 0.56 | 0.892 | 0.557 | 0.443
CS(=O)(=O)CCNCc1ccc(-c2ccc3ncnc(Nc4ccc(OCc5cccc(F)c5)c(Cl)c4)c3c2)o1 [Lapatinib] + Cn1cnc2c(F)c(Nc3ccc(Br)cc3Cl)c(C(=O)NOCCO)cc21 [Selumetinib] (first compound max 10 µM, 7x7, partner max 10 µM) | -0.0044 | 0.0063 | 0.0675 | -0.0191 | -0.0369 | 0.0054 | 0.0451 | -0.0086 | -0.0507 | -0.0148 | -0.0017 | -0.0408 | -0.0196 | 0.106 | -0.0408 | 0.782 | 0.988 | 0.954 | 0.337 | 0.207 | 0.368 | 0.991 | 0.317 | 0.551 | 0.95 | 0.405 | 0.344 | 0.785 | 0.527 | 0.119
O=C(c1cc(Cc2n[nH]c(=O)c3ccccc23)ccc1F)N1CCN(C(=O)C2CC2)CC1 [Olaparib] + CC1(C)CCC(CN2CCN(c3ccc(C(=O)NS(=O)(=O)c4ccc(NCC5CCOCC5)c([N+](=O)[O-])c4)c(Oc4cnc5[nH]ccc5c4)c3)CC2)=C(c2ccc(Cl)cc2)C1 [Venetoclax] (first compound max 10 µM, 7x7, partner max 1 µM) | -0.0219 | -0.047 | 0.0096 | -0.0359 | -0.0266 | 0.0518 | -0.0552 | -0.0572 | -0.0483 | -0.0472 | 0.0351 | -0.032 | -0.0425 | -0.0224 | -0.0285 | 0.115 | 0.0718 | 1 | 0.131 | 0.151 | 0.265 | 0.121 | 0.119 | 0.17 | 0.172 | 0.887 | 0.173 | 0.0848 | 0.183 | 0.301
